Some test systems named below: U251 CNS; NCI/ADR-RES ovarian; SK-OV-3 ovarian; OVCAR-5 ovarian; M14 melanoma; HOP-92 NSCLC; COLO 205 colon; HOP-62 NSCLC.
What all share (assay): DTP human tumour cell line panel, 48 h

Among the data in PubChem BioAssay (NCI) are GI50 and TGI values, retold here.

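Five compound concentrations were applied to cells in 96-well plates for 48 hours; endpoints were derived by simple linear interpolation of the resulting dose-response curve. GI50 marks 50% less growth. TGI is the concentration that stops growth completely.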 A value given as a limit tells only on which side of the number the result lay.

Consider `COc1ccc(Nn2c(SCC(=O)Nc3nc(-c4ccc(Cl)cc4)cs3)nc(C)c2C)cc1`, for which the GI50 is 4.03 µM in the experiment with U251 CNS; 2.89 µM with NCI/ADR-RES ovarian; 4.24 µM in the experiment with SK-OV-3 ovarian; over 100 µM with OVCAR-5 ovarian; 3.02 µM in the experiment with M14 melanoma; 2.42 µM with HOP-92 NSCLC. Besides, the GI50 in the experiment on COLO 205 colon is 1.94 µM. For the same compound, the TGI in the experiment on U251 CNS was over 100 µM; in the experiment with NCI/ADR-RES ovarian, over 100 µM; in the experiment on SK-OV-3 ovarian it was over 100 µM; in the experiment on OVCAR-5 ovarian, over 100 µM; in the experiment with M14 melanoma, over 100 µM; with HOP-92 NSCLC it was 7.8 µM. The TGI in the experiment on COLO 205 colon amounted to 3.55 µM.

Regarding `CCCCCCCC/C=C/CCCCCCCC1=NCC[N+]1(CCO)CCO`, the GI50 with U251 CNS was 1.42 µM; with NCI/ADR-RES ovarian, 11.8 µM; in the experiment on SK-OV-3 ovarian, 10.1 µM; with OVCAR-5 ovarian, 4.98 µM; with M14 melanoma it was 2.26 µM; with HOP-92 NSCLC, 1.62 µM. Besides, the GI50 in the experiment with HOP-62 NSCLC is 6.36 µM; with COLO 205 colon it was 1.98 µM. In addition, the concentration for total growth inhibition (TGI) in the experiment on U251 CNS amounted to 2.86 µM; in the experiment on NCI/ADR-RES ovarian it was 37.7 µM; in the experiment on SK-OV-3 ovarian, 24.4 µM; with OVCAR-5 ovarian, 18.9 µM; in the experiment with M14 melanoma it was 5.77 µM; in the experiment with HOP-92 NSCLC it was 5.53 µM. Further, the results for the total growth inhibition concentration (TGI) in the experiment with HOP-62 NSCLC and in the experiment with COLO 205 colon were 19.8 µM and 4.91 µM, respectively.

For the compound `COc1ccc(NC(=O)n2nc(N)c3ccccc32)cc1OC`, the GI50 in the experiment with U251 CNS was 61.7 µM; in the experiment on NCI/ADR-RES ovarian, 37.6 µM; in the experiment on SK-OV-3 ovarian, over 100 µM; with OVCAR-5 ovarian, 45.5 µM; with M14 melanoma, 65 µM; in the experiment on HOP-92 NSCLC it was 24.6 µM. Besides, the GI50 was 75.2 µM with HOP-62 NSCLC and 85.8 µM with COLO 205 colon. Moreover, the TGI in the experiment on U251 CNS, in the experiment on NCI/ADR-RES ovarian, in the experiment with SK-OV-3 ovarian, with OVCAR-5 ovarian, in the experiment on M14 melanoma and in the experiment with HOP-92 NSCLC was over 100 µM in each case. The TGI with HOP-62 NSCLC and in the experiment on COLO 205 colon was over 100 µM in each case.

`C=C(C)[C@@H]1CC[C@]2(C)[C@H](C(=O)C=C3[C@@H]4C[C@](C)(C(=O)N5CCN(C)CC5)CC[C@]4(C)CC[C@]32C)[C@@]1(C)CCC#N`: the GI50 in the experiment on U251 CNS was 6.05 µM; in the experiment on NCI/ADR-RES ovarian it was 6.83 µM; in the experiment with SK-OV-3 ovarian, 6.03 µM; in the experiment with OVCAR-5 ovarian, 7.01 µM; in the experiment on M14 melanoma, 6.86 µM; in the experiment on HOP-92 NSCLC it was 3.25 µM. Moreover, the GI50 with HOP-62 NSCLC is 6.33 µM; in the experiment on COLO 205 colon it was 5.78 µM. Also, the TGI in the experiment on U251 CNS amounted to 12.7 µM; in the experiment with NCI/ADR-RES ovarian, 13.9 µM; in the experiment on SK-OV-3 ovarian it was 12.5 µM; with OVCAR-5 ovarian, 13.6 µM; in the experiment on M14 melanoma, 14.1 µM; in the experiment on HOP-92 NSCLC, 10.2 µM. The total growth inhibition concentration (TGI) with HOP-62 NSCLC is 13.3 µM; in the experiment on COLO 205 colon, 13.4 µM.

Turning to `CCOc1ccc([C@@H]2[C@@H](Oc3ccccc3)C(=O)N2c2cc(OC)c(OC)c(OC)c2)cc1`, the 50% growth inhibitory concentration (GI50) is 0.0462 µM in the experiment on U251 CNS; 0.06 µM with NCI/ADR-RES ovarian; 0.227 µM in the experiment with SK-OV-3 ovarian; 0.47 µM in the experiment with OVCAR-5 ovarian; 0.04 µM in the experiment on M14 melanoma; 0.642 µM with HOP-92 NSCLC. The GI50 in the experiment with HOP-62 NSCLC is 0.0586 µM; in the experiment with COLO 205 colon, 0.124 µM. Further, the TGI in the experiment on U251 CNS, with NCI/ADR-RES ovarian, in the experiment with SK-OV-3 ovarian, in the experiment with OVCAR-5 ovarian, in the experiment on M14 melanoma and in the experiment on HOP-92 NSCLC was over 100 µM in each case. Further, the values for the TGI in the experiment on HOP-62 NSCLC and with COLO 205 colon were over 100 µM and 0.506 µM, respectively.

Take `Cc1nc2sccn2c(=O)c1CCN1CCC(=C(c2ccc(F)cc2)c2ccc(F)cc2)CC1`: the GI50 is 10.5 µM with U251 CNS; 13.8 µM in the experiment with NCI/ADR-RES ovarian; 16.3 µM in the experiment with SK-OV-3 ovarian; 15.2 µM with OVCAR-5 ovarian; 9.53 µM with M14 melanoma; 5.16 µM in the experiment on HOP-92 NSCLC. Further, the GI50 in the experiment with HOP-62 NSCLC is 17.9 µM; with COLO 205 colon it was 7.69 µM. The TGI with U251 CNS was found to be 23.7 µM; in the experiment on NCI/ADR-RES ovarian, 32.9 µM; with SK-OV-3 ovarian it was 30.7 µM; with OVCAR-5 ovarian it was 29.4 µM; in the experiment with M14 melanoma, 24.8 µM; with HOP-92 NSCLC, 19.2 µM. Also, the values for the total growth inhibition concentration (TGI) in the experiment with HOP-62 NSCLC and in the experiment on COLO 205 colon were 33.4 µM and 24.1 µM, respectively.

In the case of `O=[N+]([O-])c1ccc(-c2nc(-c3ccccc3)c(-c3ccccc3)n2-c2ccccc2)cc1`, the GI50 with U251 CNS was 2.74 µM; in the experiment on NCI/ADR-RES ovarian it was 2.68 µM; with SK-OV-3 ovarian it was 2.03 µM; in the experiment on OVCAR-5 ovarian it was 4.7 µM; in the experiment with M14 melanoma, 3.57 µM; with HOP-92 NSCLC, 2.42 µM. The GI50 in the experiment with HOP-62 NSCLC was 5.36 µM; with COLO 205 colon, 1.78 µM. Also, the TGI in the experiment on U251 CNS was 10.7 µM; in the experiment on NCI/ADR-RES ovarian, 7.88 µM; with SK-OV-3 ovarian, 9.21 µM; with OVCAR-5 ovarian, 28.7 µM; in the experiment with M14 melanoma, 16 µM; in the experiment with HOP-92 NSCLC it was 7.44 µM. In addition, the values for the TGI in the experiment with HOP-62 NSCLC and in the experiment with COLO 205 colon were over 86.2 µM and 3.49 µM, respectively.

Consider `Cc1cccc(Oc2nccc(-c3c(-c4ccc(F)cc4)ncn3C3CCNCC3)n2)c1C`, for which the GI50 with U251 CNS was 7.28 µM; in the experiment on NCI/ADR-RES ovarian, 11.5 µM; in the experiment with SK-OV-3 ovarian, 5.72 µM; in the experiment with OVCAR-5 ovarian, 8.62 µM; with M14 melanoma it was 4.8 µM; with HOP-62 NSCLC, 4.84 µM. Besides, the GI50 in the experiment with COLO 205 colon is 4.21 µM. The total growth inhibition concentration (TGI) in the experiment with U251 CNS was over 22.6 µM; in the experiment on NCI/ADR-RES ovarian it was over 25 µM; in the experiment with SK-OV-3 ovarian it was 12.5 µM; with OVCAR-5 ovarian, over 25 µM; in the experiment on M14 melanoma, 9.01 µM; in the experiment on HOP-62 NSCLC, 9.56 µM. The concentration for total growth inhibition (TGI) in the experiment with COLO 205 colon is 8.03 µM.

`CSc1cnn(CCC#N)c(=O)n1`: the TGI in the experiment on U251 CNS, in the experiment on SK-OV-3 ovarian, with OVCAR-5 ovarian, with M14 melanoma, with HOP-62 NSCLC and in the experiment with COLO 205 colon was over 100 µM in each case.

As to `NS(=O)(=O)c1cc2c(cc1Cl)NC(Cc1ccccc1)NS2(=O)=O` (stereo not drawn), the TGI in the experiment on U251 CNS, in the experiment on NCI/ADR-RES ovarian, in the experiment with SK-OV-3 ovarian, in the experiment with OVCAR-5 ovarian, in the experiment with M14 melanoma and in the experiment with HOP-92 NSCLC was over 100 µM in each case. Besides, the TGI with HOP-62 NSCLC and with COLO 205 colon was over 100 µM each time.

What is called GI50 is the concentration that inhibits growth by half. As a reminder, the TGI is the concentration at which net growth stops. Read a high TGI as lower sensitivity of the cells.
